Consider 15 molecules from paper PMC12150604, “Exploring structure–activity relationships of pyrrolyl diketo acid derivatives as non-nucleoside inhibitors of terminal deoxynucleotidyl transferase enzyme” (Journal of Enzyme Inhibition and Medicinal Chemistry, 2025).

Like-named read-outs stand apart in the source and are kept apart here.

The target of series [1] is T1, human DNA polymerase λ (Homo sapiens, UniProt Q9UGP5).
T1 construct: Recombinant full-length human DNA polymerase λ and β were generated and purified as described; made in house
T1 sequence (Q9UGP5 1-575): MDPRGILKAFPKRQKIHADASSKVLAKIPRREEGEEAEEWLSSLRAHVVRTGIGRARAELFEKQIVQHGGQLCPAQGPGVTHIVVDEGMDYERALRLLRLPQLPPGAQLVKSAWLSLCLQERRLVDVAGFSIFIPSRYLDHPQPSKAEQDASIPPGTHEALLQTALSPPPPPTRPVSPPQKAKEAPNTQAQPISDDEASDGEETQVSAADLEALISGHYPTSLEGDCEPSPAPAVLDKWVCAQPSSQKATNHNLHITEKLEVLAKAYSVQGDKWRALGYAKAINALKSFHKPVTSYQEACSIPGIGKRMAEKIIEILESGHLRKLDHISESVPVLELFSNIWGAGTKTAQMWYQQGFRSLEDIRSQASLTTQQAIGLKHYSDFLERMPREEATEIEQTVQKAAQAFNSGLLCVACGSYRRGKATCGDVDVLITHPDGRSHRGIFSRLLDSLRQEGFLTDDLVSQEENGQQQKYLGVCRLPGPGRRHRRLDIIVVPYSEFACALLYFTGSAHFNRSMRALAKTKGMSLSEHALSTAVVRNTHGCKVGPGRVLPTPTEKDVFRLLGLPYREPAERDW
As to the kind of experiment: Polymerase assay, DNA polymerase λ (template-dependent). In kind it is biochemical. To be noted: for pol λ (Pol) Residual activity (%) Mg2+ / pol λ (Pol) Residual activity (%) Mn2+: after treatment 100 mM; for IC50: enzymatic assay, template-dependent polymerase activity, read-out: ID50 pol λ (Pol); for residual polymerase activities: fix concentration of 100 µM, pol λ. On the procedure:
(§1) Recombinant full-length human DNA polymerase λ and β were generated and purified as described. After purification, the protein was >90% homogeneous, as judged by sodium dodecyl sulphate (SDS)−polyacrylamide gel electrophoresis (PAGE) and Coomassie staining. TdT was from Trevigen (Gaithersburg, MD).
(§2) Polymerase Assay: Activity of DNA polymerase λ and β were assessed using poly(dA)/oligo(dT)10:1 substrate in a final volume of 25 μL containing 50 mM Tris-HCl (pH 7.0), 0.25 mg/mL BSA, 1 mM, DTT, 0.2 μM poly(dA)/oligo(dT)10:1 (3′-OH ends), 50 nM DNA polymerase λ or β, 5 μM [3H]-2′-deoxythymidine 5′-triphosphate (dTTP) (5 Ci/mmol), and 0.5 mM MnCl2 or 5 mM MgCl2 used as cofactors. The polymerase activity was monitored in the presence of 10% DMSO or in the presence of increasing amounts of inhibitors dissolved in DMSO. All reactions were incubated for 15 min at 37 °C and the DNA precipitated with 10% trichloroacetic acid. Insoluble radioactive material was determined by scintillation counting using Trilux beta-counter (PerkinElmer) as described.
(§3) Dose − response curves were generated by computer fitting of the data to the equation E(%) = Emax/(1 + I/ID50) where E(%) is the fraction of enzyme’s activity measured in the presence of the inhibitor, Emax is the activity in the absence of the inhibitor, I is the inhibitor concentration, and ID50 is the inhibitor concentration at which E(%) = 0.5 Emax. ID50 values were generated using GraphPad Prism 6.

Series [2] concerns the target T2, human DNA polymerase β (Homo sapiens, UniProt P06746).
T2 construct: Recombinant full-length human DNA polymerase λ and β were generated and purified as described; made in house
Nature of the series: Polymerase assay, DNA polymerase β. To be noted: for pol β Residual activity (%) Mg2+ / pol β Residual activity (%) Mn2+: after treatment 100 mM; for IC50: enzymatic assay, read-out: ID50 pol β; for residual polymerase activities: fix concentration of 100 µM, pol β. In kind it is biochemical. As to the method: as §1, §2, §3

A further series has as its target T3, human TdT (Homo sapiens, UniProt P04053).
T3 construct: purchased Trevigen (Gaithersburg, MD)
As to the kind of experiment: Terminal transferase assay, TdT. It counts as biochemical. The settings on record: human TdT. As to the method:
as §1
(§4) Terminal Transferase Assay. DNA polymerase λ and TdT terminal transferase activities were assayed in a final volume of 25 μL containing 50 mM Tris-HCl (pH 7.0), 0.25 mg/mL BSA, 1 mM DTT, 0.2 μM ss 30mer (AAC)10 DNA oligonucleotide, 25 μM [3H]dNTPs (10 Ci/mmol) and 0.5 mM MnCl2 or 5 mM MgCl2 used as cofactors. Terminal transferase activity was monitored in the presence of 10% DMSO or in the presence of increasing amounts of inhibitors dissolved in DMSO. All reactions were incubated for 10 min at 37 °C and the DNA precipitated with 10% trichloroacetic acid. Insoluble radioactive material was determined by scintillation counting using Trilux beta-counter (PerkinElmer) as described.
as §3

Series [3] concerns the target T1, human DNA polymerase λ. Nature of the series: Terminal transferase assay, DNA polymerase λ (TdT-like activity). In kind it is biochemical. To be noted: for IC50: enzymatic assay, TdT-like activity of pol λ, read-out: ID50 pol λ (TdT). On the procedure:
as §1, §4, §3

Series [4] deals with leukaemia cells overexpressing TdT. On the set-up: method as in PMID 22390204. The settings on record: read-out: cytotoxicity activity IC50; cited from earlier work.
Series [5] addresses T2, human DNA polymerase β. Further details: method as in PMID 19329428. To be noted: enzymatic assay; cited from earlier work.
The target of series [6] is T1, human DNA polymerase λ. Further details: method as in PMID 19329428. The settings on record: enzymatic assay; cited from earlier work.
Series [7] deals with T1, human DNA polymerase λ. On the set-up: method as in PMID 19329428. The settings on record: enzymatic assay; cited from earlier work. The source holds these as a separate data set.
[8] abbreviates: Mn2+ as cofactor, read-out: ID50 (µM) Mn2+.
Where [9] appears, read: Mg2+ as cofactor, read-out: ID50 (µM) Mg2+.

T3 sequence (P04053 whole entry): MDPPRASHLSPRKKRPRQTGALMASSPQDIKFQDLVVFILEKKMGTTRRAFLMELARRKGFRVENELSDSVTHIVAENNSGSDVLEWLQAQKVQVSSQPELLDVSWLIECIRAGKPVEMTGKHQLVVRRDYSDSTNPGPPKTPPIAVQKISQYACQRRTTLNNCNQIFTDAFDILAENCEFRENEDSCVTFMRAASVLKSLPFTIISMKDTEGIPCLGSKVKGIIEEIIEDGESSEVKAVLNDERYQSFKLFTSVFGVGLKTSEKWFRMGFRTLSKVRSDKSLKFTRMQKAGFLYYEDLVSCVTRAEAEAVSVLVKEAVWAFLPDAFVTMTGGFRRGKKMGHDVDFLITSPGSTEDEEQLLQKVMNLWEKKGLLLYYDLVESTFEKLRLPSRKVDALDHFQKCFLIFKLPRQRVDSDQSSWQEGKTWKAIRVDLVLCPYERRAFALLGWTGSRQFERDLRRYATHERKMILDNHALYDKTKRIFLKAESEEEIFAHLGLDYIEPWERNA

On to “4-(1-(4-fluorobenzyl)-4-phenyl-1H-pyrrol-3-yl)-2,4-dioxobutanoic acid [Compound 12b]”, for which, at human DNA polymerase λ [1], the “pol λ (Pol) Residual activity (%) Mg2+” value is recorded as 74.0% and the “pol λ (Pol) Residual activity (%) Mn2+” value is on record as 79.0%. Moreover, at human DNA polymerase β [2], the “pol β Residual activity (%) Mg2+” value was 51.7% and the “pol β Residual activity (%) Mn2+” value was 82.5%. Also, the “ID50 (µM) Mn2+” value on human TdT (Mn2+ as cofactor) came to 10.10 ± 4.1 µM. The IC50 on human TdT (setting [8]) is reported as 10.10 µM. Moreover, on human DNA polymerase λ [3] (after treatment 100 mM, Mn2+), the “pol λ (TdT) Residual activity (%) Mn2+” value was found to be 100%.

Regarding `C#Cc1cn([C@H]2C[C@H](O)[C@@H](COP(=O)(O)OP(=O)(O)OP(=O)(O)O)O2)c2ccc([N+](=O)[O-])cc12` [3-eth-5-NITP, 3-ethynyl-5-nitroindolyl-2′-deoxynucleoside triphosphate], the IC50 in series [4] is 3.9 µM.

For the molecule `O=C(/C=C(\O)C(=O)O)/C=C/c1cc(C(=O)c2ccccc2)cn1Cc1ccccc1` [Compound 1], at human DNA polymerase β [5], the “ID50 pol β” value was greater than 40 µM. Also, on human DNA polymerase λ [6], the “ID50 pol λ (Pol)” value is listed as greater than 40 µM. Also, the “ID50 pol λ (TdT)” value at human DNA polymerase λ [7] is recorded as 20 ± 1 µM. Also, the IC50 at human TdT (setting [8]) was 16 ± 0.5 µM.

In the case of `O=C(/C=C(\O)C(=O)O)/C=C/c1cc(C(=O)c2ccccc2)cn1Cc1ccc(F)cc1` [Compound 2], the “ID50 pol β” value on human DNA polymerase β [5] was greater than 40 µM. For the same molecule, on human DNA polymerase λ [6], the “ID50 pol λ (Pol)” value was greater than 40 µM. At human DNA polymerase λ [7], the “ID50 pol λ (TdT)” value is listed as greater than 40 µM. The IC50 at human TdT (setting [8]) amounted to 9.5 ± 0.1 µM.

Turning to `O=C(/C=C(\O)C(=O)O)/C=C/c1cc(C(=O)c2cccc(F)c2)c[nH]1` [Compound 3], at human DNA polymerase β [5], the “ID50 pol β” value is greater than 40 µM. On human DNA polymerase λ [6], the “ID50 pol λ (Pol)” value is recorded as greater than 40 µM. In addition, the “ID50 pol λ (TdT)” value on human DNA polymerase λ [7] was 35 ± 1 µM. In addition, the IC50 on human TdT (setting [8]) was 0.78 ± 0.04 µM.

Regarding `O=C(/C=C(\O)C(=O)O)/C=C/c1cc(C(=O)c2ccc(F)cc2)c[nH]1` [Compound 4], the “ID50 pol β” value at human DNA polymerase β [5] was greater than 40 µM. Further, the “ID50 pol λ (Pol)” value on human DNA polymerase λ [6] is listed as greater than 40 µM. For the same molecule, the “ID50 pol λ (TdT)” value on human DNA polymerase λ [7] is 40 ± 1 µM. Also, at human TdT (setting [8]), the IC50 worked out at 0.58 ± 0.03 µM.

With `CCOC(=O)/C(O)=C/C(=O)/C=C/c1cc(C(=O)c2ccccc2)cn1Cc1ccc(Cl)cc1` [Compound 5h], the IC50 was 4.08 ± 0.4 µM on human DNA polymerase λ [1]; 12.4 ± 0.3 µM on human DNA polymerase β [2]; 17.51 ± 0.12 µM at human TdT (setting [9]); greater than 50 µM on human TdT (setting [8]); greater than 100 µM at human DNA polymerase λ [3]. Also, the residual polymerase activities result at human DNA polymerase λ [1] and on human DNA polymerase β [2] was “less than 10%” in each case.

Turning to `CCOC(=O)/C(O)=C/C(=O)/C=C/c1cc(C(=O)c2ccccc2)cn1Cc1ccc(OC)cc1` [Compound 5i], the IC50 on human DNA polymerase λ [1] was 4.07 ± 0.3 µM; at human DNA polymerase β [2] it was 7.94 ± 0.1 µM; at human TdT (setting [9]), 10.5 ± 0.2 µM; on human TdT (setting [8]), greater than 50 µM; at human DNA polymerase λ [3] it was greater than 100 µM. The residual polymerase activities result at human DNA polymerase λ [1] and on human DNA polymerase β [2] was “less than 10%” in each case.

Regarding `O=C(/C=C(\O)C(=O)O)/C=C/c1cc(C(=O)c2ccccc2)cn1Cc1ccc(Cl)cc1` [Compound 6h], the IC50 was 4.06 ± 0.2 µM on human DNA polymerase λ [1], 20 ± 0.4 µM at human DNA polymerase β [2], 5.1 ± 0.12 µM on human TdT (setting [9]) and greater than 100 µM at human DNA polymerase λ [3]. Further, the residual polymerase activities result on human DNA polymerase λ [1] and at human DNA polymerase β [2] was “less than 10%” each time.

For the molecule `COc1ccc(Cn2cc(C(=O)c3ccccc3)cc2/C=C/C(=O)/C=C(\O)C(=O)O)cc1` [Compound 6i], the IC50 on human DNA polymerase λ [1] was 4.06 ± 0.1 µM; at human DNA polymerase β [2], 14.7 ± 0.8 µM; on human TdT (setting [9]) it was 2.7 ± 0.32 µM; on human TdT (setting [8]), greater than 50 µM; on human DNA polymerase λ [3] it was greater than 100 µM. In addition, the residual polymerase activities result at human DNA polymerase λ [1] and at human DNA polymerase β [2] was “less than 10%” throughout.

Consider `O=C(O)/C(O)=C/C(=O)c1cc(-c2ccccc2)cn1Cc1ccc(F)cc1` [Compound 10b, (Z)-4-(1-(4-fluorobenzyl)-4-phenyl-1H-pyrrol-2-yl)-2-hydroxy-4-oxobut-2-enoic acid], for which, at human TdT (setting [8]), the IC50 is 3.25 ± 0.66 µM.

Consider `CCOC(=O)/C(O)=C/C(=O)c1ccn(Cc2ccc(F)cc2)c1` [Compound 11a, Ethyl (Z)-4-(1-(4-fluorobenzyl)-1H-pyrrol-3-yl)-2-hydroxy-4-oxobut-2-enoate], for which the IC50 at human TdT (setting [8]) is greater than 50 µM.

Turning to `O=C(O)/C(O)=C/C(=O)c1ccn(Cc2ccc(F)cc2)c1` [Compound 12a, (Z)-4-(1-(4-fluorobenzyl)-1H-pyrrol-3-yl)-2-hydroxy-4-oxobut-2-enoic acid], the IC50 at human TdT (setting [8]) came to 2.8 ± 0.7 µM.

Consider “(E)-6-(1-(4-fluorobenzyl)-4-(4-phenoxybenzoyl)-1H-pyrrol-2-yl)-2,4-dioxohex-5-enoic acid [Compound 6e]”, for which, on human TdT (setting [8]), the IC50 is greater than 50 µM.

For “Ethyl 4-(1-(4-fluorobenzyl)-4-phenyl-1H-pyrrol-3-yl)-2,4-dioxobutanoate [Compound 11b]”, at human DNA polymerase λ [1], the “pol λ (Pol) Residual activity (%) Mg2+” value came out at 70.0% and the “pol λ (Pol) Residual activity (%) Mn2+” value turned out to be 94.0%. At human DNA polymerase β [2], the “pol β Residual activity (%) Mg2+” value is 60.5% and the “pol β Residual activity (%) Mn2+” value turned out to be 88%. The IC50 on human TdT (setting [8]) was greater than 50 µM.
